Experiments:
[1] = tested on: Human immunodeficiency virus 1; experiment: Antiviral activity against HIV1 RT 181C mutant assessed as inhibition of viral-induced cytopathicity in MT4 cells by MTT method; type: functional, organism-based; settings: Human immunodeficiency virus 1, MT4
[2] = tested on: Human immunodeficiency virus 1; experiment: Antiviral activity against HIV1 RT 188L mutant assessed as inhibition of viral-induced cytopathicity in MT4 cells by MTT method; type: functional, organism-based; settings: Human immunodeficiency virus 1, MT4
[3] = Selectivity index, ratio of CC50 for MT4 cells to IC50 for HIV1 LAI; type: functional
[4] = tested on: Human immunodeficiency virus 1; experiment: Antiviral activity against HIV1 LAI assessed as inhibition of viral-induced cytopathicity in MT4 cells by MTT method; type: functional, organism-based; settings: Human immunodeficiency virus 1, LAI
[5] = tested on: Human immunodeficiency virus 1; experiment: Antiviral activity against HIV1 RT 100I mutant assessed as inhibition of viral-induced cytopathicity in MT4 cells by MTT method; type: functional, organism-based; settings: Human immunodeficiency virus 1, MT4
[6] = tested on: Human immunodeficiency virus 1; experiment: Antiviral activity against HIV1 with RT 103N mutant assessed as inhibition of viral-induced cytopathicity in MT4 cells by MTT method; type: functional, organism-based; settings: Human immunodeficiency virus 1, MT4
[7] = tested on: Human immunodeficiency virus 1; experiment: Antiviral activity against HIV1 RT 103N/181C mutant assessed as inhibition of viral-induced cytopathicity in MT4 cells by MTT method; type: functional, organism-based; settings: Human immunodeficiency virus 1, MT4
[8] = tested on: Human immunodeficiency virus 1; experiment: Antiviral activity against HIV1 RT 100I/103N mutant assessed as inhibition of viral-induced cytopathicity in MT4 cells by MTT method; type: functional, organism-based; settings: Human immunodeficiency virus 1, MT4

Row | Structure (SMILES) | IC50 [1] [nM] | IC50 [2] [nM] | Ratio CC50/IC50 [3] | IC50 [4] [nM] | IC50 [5] [nM] | IC50 [6] [nM] | IC50 [7] [nM] | IC50 [8] [nM]
1 | CCc1c(C)[nH]c(=O)c(C(C)C)c1Oc1cc(C)cc(C)c1 | 39.8 | 31.6 | 5012 | 19.9 | 12.5 | 39.8 |  | 
2 | CCc1c(C)[nH]c(=O)c(SC)c1Oc1cc(C)cc(C)c1 | 31.6 | 125 | 25119 | 1.99 | 19.9 | 31.6 | 31.6 | 63.1
3 | CCc1c(C)[nH]c(=O)c(-c2ccco2)c1Oc1cc(C)cc(C)c1 |  |  | 126 | 15.8 |  |  |  | 
4 | CCc1c(C)[nH]c(=O)c(Sc2ccccc2)c1Oc1cc(C)cc(C)c1 | 158 | 794 | 5012 | 10 | 125 | 794 | 1580 | 1580
5 | CCc1c(C)[nH]c(=O)c(C(F)(F)F)c1Oc1cc(C)cc(C)c1 | 50.1 | 199 | 12589 | 3.1 | 31.6 | 12.5 |  | 
6 | CCc1c(C)[nH]c(=O)c(Br)c1Oc1cc(C)cc(C)c1 | 63.1 | 631 | 90119 | 1.99 |  | 39.8 | 158 | 63.1
7 | CCc1c(C)[nH]c(=O)c(OC)c1Oc1cc(C)cc(C)c1 | 158 | 794 | 39811 | 2.5 | 31.6 | 79.4 | 501 | 316
8 | CCc1c(C)[nH]c(=O)c(/C=C/CO)c1Oc1cc(C)cc(C)c1 |  |  |  | 63.1 |  |  |  | 
9 | CCc1c(C)[nH]c(=O)c(SCCC(N)=O)c1Oc1cc(C)cc(C)c1 | 794 | 2510 | 1995 | 12.5 | 158 | 316 |  | 
10 | CCc1c(C)[nH]c(=O)c(C#N)c1Oc1cc(C)cc(C)c1 |  |  |  | 79.4 |  |  |  | 
11 | CCc1c(C)[nH]c(=O)c(C2CC2)c1Oc1cc(C)cc(C)c1 | 158 | 158 | 1259 | 6.3 | 39.8 | 199 |  | 
12 | O=C1Nc2ccc(Cl)cc2C(C#CC2CC2)(C(F)(F)F)O1 (single isomer, unassigned) [EFAVIRENZ] |  |  |  |  |  |  |  | 1000
13 | CCc1c(C)[nH]c(=O)c(CC)c1Oc1cc(C)cc(C)c1 | 39.8 | 63.1 | 3162 | 3.1 | 12.5 | 39.8 |  | 
14 | CCOC(=O)/C=C/c1c(Oc2cc(C)cc(C)c2)c(CC)c(C)[nH]c1=O |  |  |  | 6310 |  |  |  | 
15 | C=Cc1c(Oc2cc(C)cc(C)c2)c(CC)c(C)[nH]c1=O | 19.9 | 12.5 | 6309 | 3.1 | 6.3 | 3.1 | 200 | 
16 | CCc1c(C)[nH]c(=O)c([S+](C)[O-])c1Oc1cc(C)cc(C)c1 (stereo unspecified) |  |  | 6309 | 15.8 |  |  |  | 
17 | CCc1c(C)[nH]c(=O)c(I)c1Oc1cc(C)cc(C)c1 | 19.9 | 50.1 | 9000 | 1.25 | 6.31 | 3.16 | 39.8 | 19.9
18 | CCc1c(C)[nH]c(=O)c(/C=C/I)c1Oc1cc(C)cc(C)c1 |  |  |  | 100 |  |  |  | 
19 | CCSc1c(Oc2cc(C)cc(C)c2)c(CC)c(C)[nH]c1=O |  |  |  | 125 |  |  |  | 
20 | CCOC(=O)c1c(Oc2cc(C)cc(C)c2)c(CC)c(C)[nH]c1=O |  |  |  | 631 |  |  |  | 
21 | C/C=C/c1c(Oc2cc(C)cc(C)c2)c(CC)c(C)[nH]c1=O |  |  |  | 39.8 |  |  |  | 
22 | CCc1c(C)[nH]c(=O)c(/C=N/O)c1Oc1cc(C)cc(C)c1 |  |  |  | 31.6 |  |  |  | 
23 | CCc1c(C)[nH]c(=O)c(CO)c1Oc1cc(C)cc(C)c1 |  |  | 5012 | 19.9 |  |  |  | 
24 | CCc1c(C)[nH]c(=O)c(-c2ccsc2)c1Oc1cc(C)cc(C)c1 |  |  |  | 50.1 |  |  |  | 
25 | CCc1c(C)[nH]c(=O)c(C(=O)N(C)C)c1Oc1cc(C)cc(C)c1 |  |  |  | 5020 |  |  |  | 
26 | CCc1c(Oc2cc(C)cc(C)c2)cc(=O)[nH]c1C |  |  |  | 398 |  |  |  | 
27 | CCc1c(C)[nH]c(=O)c(C#Cc2ccccc2)c1Oc1cc(C)cc(C)c1 |  |  |  | 15800 |  |  |  | 
28 | CCc1c(C)[nH]c(=O)c(Cl)c1Oc1cc(C)cc(C)c1 | 100 | 398 | 10000 | 6.3 | 31.6 | 19.9 |  | 
